Assay results as given in patent US12188050B2, “Kidney organoids and methods of manufacturing” (MURDOCH CHILDRENS RESEARCH INSTITUTE, priority 2017, dated 2025).
Entries after “also recorded” stand apart in the source; their conditions may differ.

Legend:
Format in all cases: cell-based, human
[1] = tested on: kidney micro-organoids at day 7+18; assay: Drug toxicity testing in micro kidney organoids (TUNEL staining, RNA analysis); details: 0, 2.5 and 5 μg/ml for 24 hours
Description: FIG. 8. Kidney micro-organoids provides a platform for drug toxicity screening.
To evaluate the suitability of using the suspension culture method described herein to test for drug toxicity of kidneys in vitro, drug toxicity studies were conducted. Organoids produced by the method at day 7+18 were collected and randomized into treatment groups in a 24 well low attachment plates in 250 μl of media. Organoids were stimulated with different concentrations of cytotoxic drug Adriamycin (0, 2.5 and 5 μg/ml) for 24 hours. After stimulation, media was removed and organoids were fixed with 2% PFA for immunofluorescence staining analysis for apoptosis by using TUNEL staining and some organoids were lysed for RNA analysis (FIG. 8A-8D).

[2] = tested on: C32 derived swirler kidney organoids; assay: Glomerular podocyte maturation in swirler organoids with atRA (immunofluorescence, qPCR)
Excerpt: FIG. 7. All Trans-Retinoic Acid helps in the improvement of glomerular maturation in kidney micro-organoids. Immunofluorescence analysis of C32 swirler organoids generated by swirler suspension culture. (A) Organoids generated without supplementation at atRA. […] (C) qPCR analysis of organoids generated with and without atRA at different time points (D7+11 and D7+18).
To determine whether addition of all trans retinoic acid (atRA) would facilitate glomerular maturation of the organoids produced by the swirler culture method described in Examples 1-3, atRA was supplemented in the media after D7+0. All trans retinoic acid (2.5 μM) was added from D7+5 to D7+10 on C32 derived swirler organoids (FIG. 5).

[3] = tested on: intermediate mesoderm (IM) cells differentiated from hPSCs or hES; assay: qPCR gene expression profiling of intermediate mesoderm at D7+0, FGF9 +/- 1 μM CHIR99021; details: low concentration CHIR (1 μM) days 5 to 7 with FGF9 and heparin; qPCR at D7+0
Excerpt: FIG. 1. Generation of kidney micro-organoids in suspension culture. (A) Outline of the kidney micro-organoid differentiation protocol with images from a differentiation performed using CRL1502.C32 cells. (B) Bright field images showing uniform kidney micro-organoids on Day 7+18 (scale […]). (C, D1 and D2) Immunofluorescence and confocal images of micro-organoids showing formation of nephron segments independent of micro-organoid size and shape, including development of vascular structures (scale […]). (E) Bar graphs showing average fold change for intermediate mesoderm gene expression profiling by qPCR on Day 7+0 for FGF9+/−1 μM CHIR99021. The data represented as Mean, (F) Immunofluorescence for PAX2 for FGF9+/−1 μM CHIR99021 treatment (scale 50 μm) (D7+11). (G) Immunofluorescence and confocal images of nephron compartments within kidney micro-organoids; podocytes (NPHS1+ and MAFB+), proximal tubules (LTL+, CUBN+, LRP2+ and HNF4A+), distal tubules (ECAD), collecting duct (ECAD+ GATA3+) and endothelial cells (SOX17+ and PECAM1+) (scale 50 μm).
hPSCs or hES were differentiated into intermediate mesoderm by exposing cells to high concentration of CHIR (7 μM) for the first 4 days in APEL™ 2 or TeSR™-E6 media (Stem cell technologies) media with 3.5% protein free hybridoma media (PFHM) (Thermo Fischer), APEL™ (Stem cell technologies) or E6 media (Stem cell technologies). […]

[4] = tested on: kidney organoids from monolayers of hPSC; assay: Effect of duration of initial 7 μM CHIR99021 on kidney organoid patterning (confocal microscopy); details: then low CHIR and FGF9+heparin to Day 7
Description: FIG. 2. […] (A) Confocal image of micro-kidney organoid tubules on Day 7+18 showing FITC albumin uptake (scale 5 μm). (B) Confocal images of micro-kidney organoids generated using 4 different cell lines, including hES (H9 GAP-Trap Luc2, hES3 SOX17mCherry) and iPS (CRL1502.C32 and CRL1502.3) on Day 7+18 with antibodies labelling different nephron segments (scale 50 μm). (C, D and E) hES3 SOX17mCherry derived micro-organoids generated after exposure to different days of initial 7 μM CHIR99021 for 3, 4, 5 and 6 days treatment showing bright field (C, scale 100 μm) and immunofluorescence confocal images showing SOX17+ vasculature (D) and MEIS1/2/3+ stroma (E) (scale 100 μm).
To optimise differentiation within the kidney organoid protocol, monolayers of hPSC were stimulated using a fixed concentration of CHIR99021 (7 μM) for varying durations (3, 4, 5 and 6 days) before continued culture to Day 7 in the presence of low CHIR and FGF9+heparin (FIGS. 2C, 2D and 2E). After 18 days, resulting kidney organoids were evaluated for kidney structure using confocal microscopy (FIGS. 2C, 2D and 2E). […] 4 days of initial 7 μM CHIR99021 induction was confirmed as optimal and used in further studies.

Q: COc1cccc2c1C(=O)c1c(O)c3c(c(O)c1C2=O)C[C@@](O)(C(=O)CO)C[C@@H]3O[C@H]1C[C@H](N)[C@H](O)[C@H](C)O1 [Adriamycin] was tested. Which “toxicity by expression of TUNEL apoptotic marker” value [1] did it give?
A: Its value is “induces dose dependent toxicity”.

Q: What about the “expression of kidney specific genes in micro-organoids” value ([1]; RNA analysis) of the same compound?
A: The value was “reduces the expression of kidney specific genes”.

Q: With CC1=C(/C=C/C(C)=C/C=C/C(C)=C/C(=O)O)C(C)(C)CCC1 [atRA, all trans retinoic acid] as the compound, how does the “podocyte phenotype by immunofluorescence compared to control group” value ([2]; 2.5 μM atRA from D7+5 to D7+10, analysis after D7+18) read?
A: The value was “improved the podocyte phenotype; also recorded: improved glomerular podocyte maturation”.

Q: And the “mRNA expression of glomerular and proximal tubular markers (qPCR) compared to control” value ([2]; 2.5 μM atRA, D7+11 and D7+18 samples)?
A: The value was “increased expression of glomerular markers such as NPHS1 and proximal tubular markers like CUBN”.

Q: Which “expression of PAX2, LHX1 and OSR1 (cap mesenchyme) compared to short CHIR exposure groups” value [3] does the source give for Cc1c[nH]c(-c2cnc(NCCNc3ccc(C#N)cn3)nc2-c2ccc(Cl)cc2Cl)n1 [CHIR99021] here?
A: The value was “more than 2 folds”.

Q: What about the “increase in expression of Wnt11 and GATA3 (ureteric epithelium) compared to short CHIR exposure groups” value [3] of the same compound?
A: Its value is “more than 2 fold”.

Q: And the “kidney organoid structure after 18 days” value ([4]; 7 μM CHIR99021 for 4 or 5 days)?
A: The value was “generated kidney organoids containing patterning nephrons”.

Q: What about the “kidney organoid structure after 18 days” value ([4]; 7 μM CHIR99021 for 3 days) of the same compound?
A: The value was “failed to generate a kidney morphology”.

Q: And the “kidney organoid structure after 18 days” value ([4]; 7 μM CHIR99021 for 6 days)?
A: Its value is “generating larger kidney organoids with greater NPHS1 staining, contained an expanded MEIS1^+ stromal population apparently compromising epithelial structure”.
